≈ marks a conversion by molar mass, not a printed value. Where two headings read alike, the source gives them in different places.
Columns and labels:
Test in all cases: Broth dilution MIC
Type in all cases: cell-based
CNS GC 4537 = settings: read-out: Antimicrobial Activity (MIC)
Outline: (§1)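 Standard broth dilution: make serial dilutions of compound in Mueller-Hinton broth, add bacterial suspension, incubate 18 hours at 35° C., then record the lowest concentration inhibiting growth.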

S. marcescens GC 4077 = settings: Serratia marcescens, read-out: Antimicrobial Activity (MIC)
Outline: as §1

S. aureus GC 2216 = settings: Staphylococcus aureus, read-out: Antimicrobial Activity (MIC)
Outline: as §1

CNS GC 4538 = settings: read-out: Antimicrobial Activity (MIC)
Outline: as §1

E. faecalis GC 842 = settings: Enterococcus faecalis, read-out: Antimicrobial Activity (MIC)
Outline: as §1

E. faecalis GC 4555 = settings: Enterococcus faecalis, read-out: Antimicrobial Activity (MIC)
Outline: as §1

E. faecalis GC 2242 = settings: Enterococcus faecalis, read-out: Antimicrobial Activity (MIC)
Outline: as §1

P. aeruginosa GC 2214 = settings: Pseudomonas aeruginosa, read-out: Antimicrobial Activity (MIC)
Outline: as §1

E. coli GC 2203 = settings: Escherichia coli, read-out: Antimicrobial Activity (MIC)
Outline: as §1

E. coli GC 3226 = settings: Escherichia coli, read-out: Antimicrobial Activity (MIC)
Outline: as §1

P. rettgeri GC 4530 = settings: Providencia rettgeri, read-out: Antimicrobial Activity (MIC)
Outline: as §1

M. morganii GC 4531 = settings: Morganella morganii, read-out: Antimicrobial Activity (MIC)
Outline: as §1

S. aureus GC 1131 = settings: Staphylococcus aureus, read-out: Antimicrobial Activity (MIC)
Outline: as §1

E. coli GC 4559 = settings: Escherichia coli, read-out: Antimicrobial Activity (MIC)
Outline: as §1

S. aureus GC 4536 = settings: Staphylococcus aureus, read-out: Antimicrobial Activity (MIC)
Outline: as §1

E. coli GC 4560 = settings: Escherichia coli, read-out: Antimicrobial Activity (MIC)
Outline: as §1

K. pneumoniae GC 4534 = settings: Klebsiella pneumoniae, read-out: Antimicrobial Activity (MIC)
Outline: as §1

P. aeruginosa GC 4532 = settings: Pseudomonas aeruginosa, read-out: Antimicrobial Activity (MIC)
Outline: as §1

CNS GC 4547 = settings: read-out: Antimicrobial Activity (MIC)
Outline: as §1

E. cloacae GC 3783 = settings: Enterobacter cloacae, read-out: Antimicrobial Activity (MIC)
Outline: as §1

[1] = CNS GC 4537, Mueller-Hinton broth, 18 hours at 35° C.
[2] = GC4077, S. marcescens GC 4077, Mueller-Hinton broth, 18 hours at 35° C.
[3] = GC2216, S. aureus GC 2216, Mueller-Hinton broth, 18 hours at 35° C.
[4] = CNS GC 4538, Mueller-Hinton broth, 18 hours at 35° C.
[5] = GC842, E. faecalis GC 842, Mueller-Hinton broth, 18 hours at 35° C.
[6] = GC4555, E. faecalis GC 4555, Mueller-Hinton broth, 18 hours at 35° C.
[7] = GC2242, E. faecalis GC 2242, Mueller-Hinton broth, 18 hours at 35° C.
[8] = GC2214, P. aeruginosa GC 2214, Mueller-Hinton broth, 18 hours at 35° C.
[9] = GC2203, E. coli GC 2203, Mueller-Hinton broth, 18 hours at 35° C.
[10] = GC3226, E. coli GC 3226, Mueller-Hinton broth, 18 hours at 35° C.
[11] = GC4530, P. rettgeri GC 4530, Mueller-Hinton broth, 18 hours at 35° C.
[12] = GC4531, M. morganii GC 4531, Mueller-Hinton broth, 18 hours at 35° C.
[13] = GC1131, S. aureus GC 1131, Mueller-Hinton broth, 18 hours at 35° C.
[14] = GC4559, E. coli GC 4559, Mueller-Hinton broth, 18 hours at 35° C.
[15] = GC4536, S. aureus GC 4536, Mueller-Hinton broth, 18 hours at 35° C.
[16] = GC4560, E. coli GC 4560, Mueller-Hinton broth, 18 hours at 35° C.
[17] = GC4534, K. pneumoniae GC 4534, Mueller-Hinton broth, 18 hours at 35° C.
[18] = GC4532, P. aeruginosa GC 4532, Mueller-Hinton broth, 18 hours at 35° C.
[19] = CNS GC 4547, Mueller-Hinton broth, 18 hours at 35° C.
[20] = GC3783, E. cloacae GC 3783, Mueller-Hinton broth, 18 hours at 35° C.

SMILES	MIC (CNS GC 4537; [1]) [µg/mL]	MIC (S. marcescens GC 4077; [2]) [µg/mL]	MIC (S. aureus GC 2216; [3]) [µg/mL]	MIC (CNS GC 4538; [4]) [µg/mL]	MIC (E. faecalis GC 842; [5]) [µg/mL]	MIC (E. faecalis GC 4555; [6]) [µg/mL]	MIC (E. faecalis GC 2242; [7]) [µg/mL]	MIC (P. aeruginosa GC 2214; [8]) [µg/mL]	MIC (E. coli GC 2203; [9]) [µg/mL]	MIC (E. coli GC 3226; [10]) [µg/mL]	MIC (P. rettgeri GC 4530; [11]) [µg/mL]	MIC (M. morganii GC 4531; [12]) [µg/mL]	MIC (S. aureus GC 1131; [13]) [µg/mL]	MIC (E. coli GC 4559; [14]) [µg/mL]	MIC (S. aureus GC 4536; [15]) [µg/mL]	MIC (E. coli GC 4560; [16]) [µg/mL]	MIC (K. pneumoniae GC 4534; [17]) [µg/mL]	MIC (P. aeruginosa GC 4532; [18]) [µg/mL]	MIC (CNS GC 4547; [19]) [µg/mL]	MIC (E. cloacae GC 3783; [20]) [µg/mL]	also measured
CCCCCCCCNC(=O)NC[C@H]1OC(O[C@H](C2C(=O)N(CCCCCCCC)C(=O)N2CCCNC(=O)C(NC(=O)C(NC(=O)NC(C(=O)O)C(C)C)C2CCNC(=N)N2)C(O)C(C)C)[C@H]2O[C@@H](n3ccc(=O)[nH]c3=O)[C@H](O)[C@@H]2O)[C@H](OC)[C@H]1O (stereo partly drawn) [Example 11, 14-[5-((R)-{(2S,3S,4R,5R)-5-[2,4-Dioxo-3,4-dihydro-1 (2H)-pyrimidinyl]-3,4-dihydroxytetrahydro-2-furanyl}{[(3R,4S,5R)-4-hydroxy-3-methoxy-5-({[(octylamino)carbonyl]amino}methyl)tetrahydro-2-furanyl]oxy}methyl)-3-octyl-2,4-dioxo-1-imidazolidinyl]-9-(1-hydroxy-2-methylpropyl)-6-(2-iminohexahydro-4-pyrimidinyl)-2-isopropyl-4,7,10-trioxo-3,5,8,11-tetraazatetradecan-1-oic Acid]	> 32	> 32	> 32	> 32	> 32	> 32	> 32	> 32	> 32	> 32	> 32	> 32	> 32	> 32	> 32	> 32	> 32	> 32	> 32	> 32	
COC1C(O[C@H](C2C(=O)N(c3ccc(F)cc3)C(=O)N2CCCNC(=O)C(NC(=O)C(NC(=O)NC(C(=O)O)C(C)C)C2CCNC(=N)N2)C(O)C(C)C)[C@H]2O[C@@H](n3ccc(=O)[nH]c3=O)C(O)C2O)O[C@H](CNC(=O)Nc2ccc(F)cc2)C1O (stereo partly drawn) [Example 12, 14-[5-((R)-{(2S,5R)-5-[2,4-Dioxo-3,4-dihydro-1 (2H)-pyrimidinyl]-3,4-dihydroxytetrahydro-2-furanyl}{[(5R)-4-hydroxy-3-methoxy-5-({[(4-fluoroanilino)carbonyl]amino}methyl)tetrahydro-2-furanyl]oxy}methyl)-3-(4-fluorophenyl)-2,4-dioxo-1-imidazolidinyl]-9-(1-hydroxy-2-methylpropyl)-6-(2-iminohexahydro-4-pyrimidinyl)-2-isopropyl-4,7,10-trioxo-3,5,8,11-tetraazatetradecan-1-oic Acid]	> 32	> 32	> 32	> 32	> 32	> 32	> 32	> 32	> 32	> 32	> 32	> 32	> 32	> 32	> 32	> 32	> 32	> 32	> 32	> 32	
COc1ccc(NC(=O)NC[C@H]2OC(O[C@H](C3C(=O)N(c4ccc(OC)cc4)C(=O)N3CCCNC(=O)C(NC(=O)C(NC(=O)NC(C(=O)O)C(C)C)C3CCNC(=N)N3)C(O)C(C)C)[C@H]3O[C@@H](n4ccc(=O)[nH]c4=O)C(O)C3O)C(OC)C2O)cc1 (stereo partly drawn) [Example 13, 14-[5-((R)-{(2S,5R)-5-[2,4-Dioxo-3,4-dihydro-1 (2H)-pyrimidinyl]-3,4-dihydroxytetrahydro-2-furanyl}{[(5R)-4-hydroxy-3-methoxy-5-({[(4-methoxyanilino)carbonyl]amino}methyl)tetrahydro-2-furanyl]oxy}methyl)-3-(4-methoxyphenyl)-2,4-dioxo-1-imidazolidinyl]-9-(1-hydroxy-2-methylpropyl)-6-(2-iminohexahydro-4-pyrimidinyl)-2-isopropyl-4,7,10-trioxo-3,5,8,11-tetraazatetradecan-1-oic Acid]																					MIC (CNS GC 4537; 18 h): > 32 µg/mL; MIC (S. marcescens GC 4077; GC4077, 18 h): > 32 µg/mL; MIC (S. aureus GC 2216; GC2216, 18 h): > 32 µg/mL; MIC (CNS GC 4538; 18 h): > 32 µg/mL; MIC (E. faecalis GC 842; GC842, 18 h): > 32 µg/mL; MIC (E. faecalis GC 4555; GC4555, 18 h): > 32 µg/mL; MIC (E. faecalis GC 2242; GC2242, 18 h): > 32 µg/mL; MIC (P. aeruginosa GC 2214; GC2214, 18 h): > 32 µg/mL; MIC (E. coli GC 2203; GC2203, 18 h): > 32 µg/mL; MIC (E. coli GC 3226; GC3226, 18 h): > 32 µg/mL; MIC (P. rettgeri GC 4530; GC4530, 18 h): > 32 µg/mL; MIC (M. morganii GC 4531; GC4531, 18 h): > 32 µg/mL; MIC (S. aureus GC 1131; GC1131, 18 h): > 32 µg/mL; MIC (E. coli GC 4559; GC4559, 18 h): > 32 µg/mL; MIC (S. aureus GC 4536; GC4536, 18 h): > 32 µg/mL; MIC (E. coli GC 4560; GC4560, 18 h): > 32 µg/mL; MIC (K. pneumoniae GC 4534; GC4534, 18 h): > 32 µg/mL; MIC (P. aeruginosa GC 4532; GC4532, 18 h): > 32 µg/mL; MIC (CNS GC 4547; 18 h): > 32 µg/mL; MIC (E. cloacae GC 3783; GC3783, 18 h): > 32 µg/mL
CCCCCCNC(=O)NC[C@H]1OC(O[C@H](C2C(=O)N(CCCCCC)C(=O)N2CCCNC(=O)C(NC(=O)C(NC(=O)NC(C(=O)O)C(C)C)C2CCNC(=N)N2)C(O)C(C)C)[C@H]2O[C@@H](n3ccc(=O)[nH]c3=O)[C@H](O)[C@@H]2O)[C@H](OC)[C@H]1O (stereo partly drawn) [Example 14, 14-[5-((R)-{(2S,3S,4R,5R)-5-[2,4-Dioxo-3,4-dihydro-1 (2H)-pyrimidinyl]-3,4-dihydroxytetrahydro-2-furanyl}{[(3R,4S,5R)-5-({[(hexylamino)carbonyl]amino}methyl)-4-hydroxy-3-methoxytetrahydro-2-furanyl]oxy}methyl)-3-hexyl-2,4-dioxo-1-imidazolidinyl]-9-(1-hydroxy-2-methylpropyl)-6-(2-iminohexahydro-4-pyrimidinyl)-2-isopropyl-4,7,10-trioxo-3,5,8,11-tetraazatetradecan-1-oic Acid]	32 (≈ 27.1 µM)	> 32	32 (≈ 27.1 µM)	32 (≈ 27.1 µM)	> 32	> 32	32 (≈ 27.1 µM)	> 32	> 32	> 32	> 32	> 32	32 (≈ 27.1 µM)	> 32	32 (≈ 27.1 µM)	32 (≈ 27.1 µM)	> 32	> 32	16 (≈ 13.5 µM)	> 32	
